Measured values: ChEMBL document CHEMBL3784929, “Pharmacokinetics of valproic acid in volunteers after a single dose study” (Biopharm Drug Dispos, 1985)

What was measured:
Type in all cases: ADME, organism-based
[1] = Total serum concentration in healthy human (6 volunteers) at 1 g, po administered as single dose measured after 6 hrs by gas liquid chromatography; details: read-out: Drug uptake
[2] = Total serum concentration in healthy human (6 volunteers) at 1 g, po administered as single dose measured after 8 hrs by gas liquid chromatography; details: read-out: Drug uptake
[3] = Total serum concentration in healthy human (6 volunteers) at 1 g, po administered as single dose measured after 10 hrs by gas liquid chromatography; details: read-out: Drug uptake
[4] = Total serum concentration in healthy human (6 volunteers) at 1 g, po administered as single dose measured after 12 hrs by gas liquid chromatography; details: read-out: Drug uptake
[5] = Total serum concentration in healthy human (6 volunteers) at 1 g, po administered as single dose measured after 14 hrs by gas liquid chromatography; details: read-out: Drug uptake
[6] = Total serum concentration in healthy human (6 volunteers) at 1 g, po administered as single dose measured after 24 hrs by gas liquid chromatography; details: read-out: Drug uptake
[7] = Total serum concentration in healthy human (6 volunteers) at 1 g, po administered as single dose measured after 30 hrs by gas liquid chromatography; details: read-out: Drug uptake
[8] = Total serum concentration in healthy human (6 volunteers) at 1 g, po administered as single dose measured after 39 hrs by gas liquid chromatography; details: read-out: Drug uptake
[9] = Total serum concentration in healthy human (6 volunteers) at 1 g, po administered as single dose measured after 48 hrs by gas liquid chromatography; details: read-out: Drug uptake
[10] = tested on: Serum; experiment: Unbound serum concentration in healthy human (6 volunteers) at 1 g, po administered as single dose measured after 0.33 hrs by enzyme multiple immunotechnique; details: in vivo
[11] = tested on: Serum; experiment: Unbound serum concentration in healthy human (6 volunteers) at 1 g, po administered as single dose measured after 0.66 hrs by enzyme multiple immunotechnique; details: in vivo
[12] = tested on: Serum; experiment: Unbound serum concentration in healthy human (6 volunteers) at 1 g, po administered as single dose measured after 1 hr by enzyme multiple immunotechnique; details: in vivo
[13] = tested on: Serum; experiment: Unbound serum concentration in healthy human (6 volunteers) at 1 g, po administered as single dose measured after 1.5 hrs by enzyme multiple immunotechnique; details: in vivo
[14] = tested on: Serum; experiment: Unbound serum concentration in healthy human (6 volunteers) at 1 g, po administered as single dose measured after 2 hrs by enzyme multiple immunotechnique; details: in vivo
[15] = tested on: Serum; experiment: Unbound serum concentration in healthy human (6 volunteers) at 1 g, po administered as single dose measured after 3 hrs by enzyme multiple immunotechnique; details: in vivo
[16] = tested on: Serum; experiment: Unbound serum concentration in healthy human (6 volunteers) at 1 g, po administered as single dose measured after 4 hrs by enzyme multiple immunotechnique; details: in vivo
[17] = tested on: Serum; experiment: Unbound serum concentration in healthy human (6 volunteers) at 1 g, po administered as single dose measured after 5 hrs by enzyme multiple immunotechnique; details: in vivo
[18] = tested on: Serum; experiment: Unbound serum concentration in healthy human (6 volunteers) at 1 g, po administered as single dose measured after 6 hrs by enzyme multiple immunotechnique; details: in vivo
[19] = tested on: Serum; experiment: Unbound serum concentration in healthy human (6 volunteers) at 1 g, po administered as single dose measured after 8 hrs by enzyme multiple immunotechnique; details: in vivo
[20] = tested on: Serum; experiment: Unbound serum concentration in healthy human (6 volunteers) at 1 g, po administered as single dose measured after 10 hrs by enzyme multiple immunotechnique; details: in vivo
[21] = tested on: Serum; experiment: Unbound serum concentration in healthy human (6 volunteers) at 1 g, po administered as single dose measured after 12 hrs by enzyme multiple immunotechnique; details: in vivo
[22] = tested on: Serum; experiment: Unbound serum concentration in healthy human (6 volunteers) at 1 g, po administered as single dose measured after 14 hrs by enzyme multiple immunotechnique; details: in vivo
[23] = tested on: Serum; experiment: Unbound serum concentration in healthy human (6 volunteers) at 1 g, po administered as single dose measured after 24 hrs by enzyme multiple immunotechnique; details: in vivo
[24] = tested on: Serum; experiment: Unbound serum concentration in healthy human (6 volunteers) at 1 g, po administered as single dose measured after 30 hrs by enzyme multiple immunotechnique; details: in vivo
[25] = tested on: Serum; experiment: Unbound serum concentration in healthy human (6 volunteers) at 1 g, po administered as single dose measured after 39 hrs by enzyme multiple immunotechnique; details: in vivo
[26] = tested on: Serum; experiment: Unbound serum concentration in healthy human (6 volunteers) at 1 g, po administered as single dose measured after 48 hrs by enzyme multiple immunotechnique; details: in vivo
[27] = Fraction unbound in healthy human (6 volunteers) serum at 1 g, po administered as single dose measured after 0.33 hrs
[28] = Fraction unbound in healthy human (6 volunteers) serum at 1 g, po administered as single dose measured after 0.66 hrs
[29] = Fraction unbound in healthy human (6 volunteers) serum at 1 g, po administered as single dose measured after 1 hr
[30] = Fraction unbound in healthy human (6 volunteers) serum at 1 g, po administered as single dose measured after 1.5 hrs
[31] = Fraction unbound in healthy human (6 volunteers) serum at 1 g, po administered as single dose measured after 2 hrs
[32] = Fraction unbound in healthy human (6 volunteers) serum at 1 g, po administered as single dose measured after 3 hrs
[33] = Fraction unbound in healthy human (6 volunteers) serum at 1 g, po administered as single dose measured after 4 hrs
[34] = Fraction unbound in healthy human (6 volunteers) serum at 1 g, po administered as single dose measured after 5 hrs
[35] = Fraction unbound in healthy human (6 volunteers) serum at 1 g, po administered as single dose measured after 6 hrs
[36] = Fraction unbound in healthy human (6 volunteers) serum at 1 g, po administered as single dose measured after 8 hrs
[37] = Fraction unbound in healthy human (6 volunteers) serum at 1 g, po administered as single dose measured after 10 hrs
[38] = Fraction unbound in healthy human (6 volunteers) serum at 1 g, po administered as single dose measured after 12 hrs
[39] = Fraction unbound in healthy human (6 volunteers) serum at 1 g, po administered as single dose measured after 14 hrs
[40] = Tmax in healthy human (6 volunteers) at 1 g, po administered as single dose by gas liquid chromatography; details: in vivo
[41] = Cmax in healthy human (6 volunteers) at 1 g, po administered as single dose by gas liquid chromatography; parameters: dose 1 g, route oral; details: in vivo
[42] = Terminal half life in healthy human (6 volunteers) at 1 g, po administered as single dose by gas liquid chromatography; details: in vivo, read-out: beta t1/2 (converted)
[43] = Drug metabolism in healthy human (6 volunteers) assessed as excretion of valproic acid glucuronide in urine at 1 g, po administered as single dose measured upto 48 hrs by gas liquid chromatography; details: in vivo
[44] = Total AUC in healthy human (6 volunteers) at 1 g, po administered as single dose by gas liquid chromatography; parameters: dose 1 g, time AUCmax, route oral; details: in vivo
[45] = tested on: Homo sapiens; experiment: fAUC in healthy human (6 volunteers) at 1 g, po administered as single dose by gas liquid chromatography; details: in vivo
[46] = Fraction unbound in healthy human (6 volunteers) serum assessed as ratio of fAUC to total AUC at 1 g, po administered as single dose by gas liquid chromatography
[47] = Fraction unbound in healthy human (6 volunteers) serum at 1 g, po administered as single dose
[48] = Total serum concentration in healthy human (6 volunteers) at 1 g, po administered as single dose measured after 0.33 hrs by gas liquid chromatography; details: read-out: Drug uptake
[49] = Total serum concentration in healthy human (6 volunteers) at 1 g, po administered as single dose measured after 0.66 hrs by gas liquid chromatography; details: read-out: Drug uptake
[50] = Total serum concentration in healthy human (6 volunteers) at 1 g, po administered as single dose measured after 1 hr by gas liquid chromatography; details: read-out: Drug uptake
[51] = Total serum concentration in healthy human (6 volunteers) at 1 g, po administered as single dose measured after 1.5 hrs by gas liquid chromatography; details: read-out: Drug uptake
[52] = Total serum concentration in healthy human (6 volunteers) at 1 g, po administered as single dose measured after 2 hrs by gas liquid chromatography; details: read-out: Drug uptake
[53] = Total serum concentration in healthy human (6 volunteers) at 1 g, po administered as single dose measured after 3 hrs by gas liquid chromatography; details: read-out: Drug uptake
[54] = Total serum concentration in healthy human (6 volunteers) at 1 g, po administered as single dose measured after 4 hrs by gas liquid chromatography; details: read-out: Drug uptake
[55] = Total serum concentration in healthy human (6 volunteers) at 1 g, po administered as single dose measured after 5 hrs by gas liquid chromatography; details: read-out: Drug uptake

`CCCC(CCC)C(=O)[O-].[Na+]` [VALPROATE SODIUM] showed a concentration at 6 h [1] of 85.9 µg/mL, a concentration at 8 h [2] of 66.9 µg/mL and a concentration at 10 h [3] of 61.4 µg/mL. The concentration at 12 h [4] was 54.1 µg/mL, the concentration at 14 h [5] was 47.5 µg/mL and the concentration at 24 h [6] was 33.3 µg/mL. For the same compound, the concentration at 30 h [7] was 23.4 µg/mL, the concentration at 39 h [8] was 15.3 µg/mL and the concentration at 48 h [9] was 10.6 µg/mL. For the same compound, the “Drug uptake(free)” value [10] was 2.1 µg/mL, the “Drug uptake(free)” value [11] was 4.9 µg/mL and the “Drug uptake(free)” value [12] was 5.3 µg/mL. For the same compound, the “Drug uptake(free)” value [13] was 4.3 µg/mL, the “Drug uptake(free)” value [14] was 6.1 µg/mL and the “Drug uptake(free)” value [15] was 4.7 µg/mL. The “Drug uptake(free)” value [16] was 4.6 µg/mL, the “Drug uptake(free)” value [17] was 3.6 µg/mL and the “Drug uptake(free)” value [18] was 3.8 µg/mL. For the same compound, the “Drug uptake(free)” value [19] was 3.9 µg/mL, the “Drug uptake(free)” value [20] was 2.7 µg/mL and the “Drug uptake(free)” value [21] was 1.9 µg/mL. The “Drug uptake(free)” value [22] was 1.2 µg/mL, the “Drug uptake(free)” value [23] was 0 µg/mL and the “Drug uptake(free)” value [24] was 0 µg/mL. For the same compound, the “Drug uptake(free)” value [25] was 0 µg/mL, the “Drug uptake(free)” value [26] was 0 µg/mL and the fraction unbound at 0.33 h [27] was 0.04. It also gave a fraction unbound at 0.66 h [28] of 0.052, a fraction unbound at 1 h [29] of 0.051 and a fraction unbound at 1.5 h [30] of 0.042. For the same compound, the fraction unbound at 2 h [31] was 0.058, the fraction unbound at 3 h [32] was 0.049 and the fraction unbound at 4 h [33] was 0.049. The fraction unbound at 5 h [34] was 0.04, the fraction unbound at 6 h [35] was 0.044 and the fraction unbound at 8 h [36] was 0.059. It also gave a fraction unbound at 10 h [37] of 0.046, a fraction unbound at 12 h [38] of 0.037 and a fraction unbound at 14 h [39] of 0.026. The Tmax [40] was 2 h, the Cmax [41] was 108 µg/mL and the half-life [42] was 14.9 h. It also gave a Drug metabolism [43] of 176.6 mg, an AUC [44] of 2120 µg·h/mL and a fAUC [45] of 84.2 µg·h/mL. It also gave a fraction unbound [46] of 0.041, a fraction unbound [47] of 0.049 and a concentration at 0.33 h [48] of 52.3 µg/mL. It also gave a concentration at 0.66 h [49] of 95.2 µg/mL, a concentration at 1 h [50] of 105 µg/mL and a concentration at 1.5 h [51] of 103 µg/mL. For the same compound, the concentration at 2 h [52] was 105 µg/mL, the concentration at 3 h [53] was 96.3 µg/mL and the concentration at 4 h [54] was 92.9 µg/mL. For the same compound, the concentration at 5 h [55] was 88.6 µg/mL.
